Here are results for 5 molecules from US4309559A, “Sulphonamides useful as pesticides” (FBC Limited, priority 1977, dated 1982).

In data set [1] the test system is vine downy mildew Plasmopara viticola. Briefly: Vine downy mildew control on vine plants (leaf application). In kind it is in vivo. The settings on record: leaves, 12 days, controls less than 5%. On the procedure:
Aqueous acetone solutions or suspensions containing 2000 or 500 mg of the compound listed below per liter, together with 125 mg of a wetting agent per liter, were applied to:
(B) the leaves of vine plants having five fully expanded leaves;
The treated plants, together with controls treated with wetting agent alone, were inoculated 24 hours after the chemical application:
in the case of (B) with an aqueous suspension of sporangia of the disease organism vine downy mildew Plasmopara viticola;
in the case of (B) were placed in an atomosphere of 80-100% humidity at 14°-18° C. until the disease incidence was measured twelve days later;

The test system of data set [2] is barley powdery mildew Erysiphe graminis. As to the kind of experiment: Barley powdery mildew control on barley plants. In kind it is in vivo. The settings on record: 2000 ppm; soil and leaves; 10 days; controls less than 5%.
Data set [3] relates to cucumber powdery mildew Erysiphe cichoracearum. As to the kind of experiment: Cucumber powdery mildew control on cucumber plants. In kind it is in vivo. The settings on record: 2000 ppm; soil and leaves; 14 days; controls less than 5%.
The test system of data set [4] is cabbage seeds, variety Flower of Spring. Briefly: Phytotoxicity of chemical alone on cabbage seed germination (chemical only soil treatment). In kind it is in vivo. On the procedure:
Fifteen cabbage seeds, variety Flower of Spring, were placed in a circular depression in the treated infected soil, recovered, and the whole sealed with a plastic cap. The cartons were then placed in a constant temperature room at 25° C.±1° C. Four replications per treatment were made, with one additional treatment where seeds were sown in soil which was chemically treated only, i.e. there was no infection. This latter treatment was included to measure the direct effect of the chemical on the germination of the seed. and are given in the following table. Any phytotoxicity induced by the chemical alone is deduced from the chemical only soil treatment.

Data set [5] has as its system Pythium ultimum. As to the kind of experiment: Cabbage seedling emergence in soil infected with Pythium ultimum. The settings on record: 6 days, 25° C. The data set is classed as in vivo, Pythium ultimum (on cabbage, variety Flower of Spring). The protocol: (§1) A one week old maize meal/sand culture of the damping-off disease organism Pythium ultimum was thoroughly mixed by hand with clean sterile John Innes No. 1 potting compost in the ratio of 3 kg culture to 12 liters of soil. The infected soil was then left for approximately 18 hours before use. Each of the compounds listed below was ground together with a wetting agent, Tween 20 (1% of final volume), until a solution or fine suspension was produced which was then diluted with distilled water to give 160 ml of solution containing 1500, 500, 150 or 50 ppm active ingredient. 15 ml aliquots of this solution were added to 75 g portions of the soil infected with Pythium ultimum which were contained in small plastic cartons, 60 mm diameter×55 mm high. Fifteen cabbage seeds, variety Flower of Spring, were placed in a circular depression in the treated infected soil, recovered, and the whole sealed with a plastic cap. The cartons were then placed in a constant temperature room at 25° C.±1° C. Four replications per treatment were made with one additional treatment where seeds were sown in soil which was chemically treated only, i.e. there was no infection. This latter treatment was included to measure the direct effect of the chemical on the germination of the seed. After six days the cartons were removed from the controlled temperature chamber and assessed for degree of fungal growth on the soil surface and percentage of seedling emergence. The results of both these assessments are expressed in a 0-8 scale as follows:
(§2) One week old maize meal/sand culture of the damping-off disease organism Pythium ultimum was thoroughly mixed by hand with clean sterile John Innes No. 1 potting compost in the ratio of 3 kg culture to 12 liters of soil. This infected soil was then left for approximately 18 hours before use. The compounds listed in the Table below were each ground with the wetting agent Tween 20 (1% of final volume), until a solution or fine suspension was produced, which was then diluted with distilled water to give 160 ml of solution containing 1500 or 500 parts per million (ppm) active ingredient. 15 ml aliquots of this solution were added to 75 g portions of the soil infected with Pythium ultimum which were contained in small plastic cartons, 60 mm diameter×55 mm high.
(§3) Fifteen cabbage seeds, variety Flower of Spring, were placed in a circular depression in the treated infected soil, recovered, and the whole sealed with a plastic cap. The cartons were then placed in a constant temperature room at 25° C.±1° C. Four replications per treatment were made, with one additional treatment where seeds were sown in soil which was chemically treated only, i.e. there was no infection. This latter treatment was included to measure the direct effect of the chemical on the germination of the seed.
(§4) After six days, the cartons were removed from the controlled temperature chamber and assessed for degree of fungal growth on the soil surface and percentage of seedling emergence. The results of both these assessments are expressed in a 0-8 scale as follows:
(§5) N-(2-oxopropyl)-3',4'-dimethyl-methanesulphonanilide was tested at a dose rate of 300 ppm in the test described in Examples 233 and 234. It gave a mycelial control score of 0 and a germination score of 3 whereas the untreated samples gave a score of 0 for both.

Data set [6] relates to vine downy mildew, Plasmopara viticola. As to the kind of experiment: Vine downy mildew control on vine plants (application to soil and leaves). The settings on record: 2000 ppm, 12 days, controls less than 5%. The data set is classed as in vivo. On the procedure:
Aqueous acetone solutions of each of the compounds listed in the Table below, containing 2000 parts per million (ppm), together with 125 ppm of a suitable wetting agent, were applied to the soil surrounding the roots and leaves of vine plants having five fully expanded leaves.
The treated plants, together with controls treated with wetting agent alone, were inoculated 24 hours after the chemical application with an aqueous suspension of sporangia of the disease organism known as vine downy mildew, Plasmopara viticola.

Data set [7] has as its system Pythium ultimum. As to the kind of experiment: Fungal growth on the surface of soil infected with damping-off disease organism. The settings on record: 6 days, 25° C. The data set is classed as in vivo. The protocol: as §1, §2, §3, §4, §5
The subject of data set [8] is rice blast Pyricularia oryzae. The data set is classed as in vivo. The settings on record: 2000 ppm; soil and leaves; 7 days; controls less than 5%.
The test system of data set [9] is potato blight Phytophthora infestans. In kind it is in vivo. The settings on record: 2000 ppm; 5 days; controls less than 5%.
Setting [10] is: 100 ppm, 0-8 scale (Examples 233, 234).
[11] abbreviates: 300 ppm, 0-8 scale (Examples 233, 234, 268).

For `COC(=O)C(C)N(c1c(C)cccc1C)S(C)(=O)=O` (centres unmarked) [Example 29, N-(1-(methoxycarbonyl)ethyl)-2',6'-dimethyl-methanesulphonanilide], the “% Control, vine downy mildew” value in data set [1] (500 ppm) stood at 90%; in data set [1] (2000 ppm) it was 98%.

For the molecule `Cc1cccc(C)c1N(C1CCOC1=O)S(C)(=O)=O` (centres unmarked) [Example 123], the “% Control, barley powdery mildew” value in data set [2] is recorded as 95%. In addition, in data set [3], the “% Control, cucumber powdery mildew” value came to 92%.

Consider `COC(C)(CN(c1c(C)cccc1Cl)S(C)(=O)=O)OC` [Example 222, N-(2,2-dimethoxypropyl)-2'-chloro-6'-methyl-methanesulphonanilide], for which the “Phytotoxicity Score” value in data set [4] (100 ppm) and in data set [4] (300 ppm) was 0 each time. Besides, the “Germination Score” value in the data set with Pythium ultimum [5] (setting [10]) and in the data set with Pythium ultimum [5] (setting [11]) was 1 (20-34% inhibition) each time. Also, in data set [6], the “% Control Vine Downing Mildew” value is listed as 94%. The entries for the “Mycelial Control Score” value in the data set with Pythium ultimum [7] (setting [10]) and in the data set on Pythium ultimum [7] (setting [11]) were 3 (45-54% inhibition) and 4 (55- 64% inhibition), respectively.

For `Cc1cccc(Cl)c1N(CC1(C)OCCO1)S(C)(=O)=O` [Example 230, N-[(2-methyl-1,3-dioxolan-2-yl)methyl]-2'-chloro-6'-methylmethanesulphonanilide], the “% Control Vine Downing Mildew” value in data set [6] worked out at 80%.

As to `CC(=O)CN(c1ccc(C)c(C)c1)S(C)(=O)=O` [Example 272, N-(2-oxopropyl)-3',4'-dimethylmethanesulphonanilide], the “% Control, barley powdery mildew” value in [2] is reported as 99%. Besides, the “% Control, rice blast” value in [8] is 67%. Besides, the “Germination Score” value in the data set on Pythium ultimum [5] (setting [11]) is 3 (45-54% inhibition). For the same molecule, the “% Control, potato blight” value in data set [9] amounted to 62%. Besides, the “Mycelial Control Score” value with Pythium ultimum [7] (setting [11]) is 0 (<20% inhibition).
